Paper PMC3460366, “Synthesis and Antibacterial Evaluation of a New Series of N-Alkyl-2-alkynyl/(E)-alkenyl-4-(1H)-quinolones” (Molecules, 2012)
Converted amounts (≈) assume the structure as drawn. “And” between values parts separate entries of the source, which are not always exact repeats. Identical values can stand only once. Like-named read-outs stand apart in the source and are kept apart here.

How the values were obtained:
[1] = target: T1, M. tuberculosis MurE ligase (Mycobacterium tuberculosis, UniProt P9WJL3); set-up: method as in PMID 21622974; settings: positive control; read-out: IC50 Mtb MurE; cited from earlier work
T1 construct: made in house; host or cells: E. coli BL21(DE3)pLysS

M. fortuitum (ATCC 6841) = experiment: Broth dilution MIC against M. fortuitum; format: cell-based; settings: Mycolicibacterium fortuitum, ATCC6841, 72 h
S. aureus EMRSA-16 = experiment: Broth dilution MIC against EMRSA-16; format: cell-based; settings: Staphylococcus aureus, EMRSA16, 18 h
M. phlei (ATCC 11758) = experiment: Broth dilution MIC against M. phlei; format: cell-based; settings: Mycolicibacterium phlei, ATCC11758, 72 h
S. aureus EMRSA-15 = experiment: Broth dilution MIC against EMRSA-15; format: cell-based; settings: Staphylococcus aureus, EMRSA15, 18 h
[2] = test system: M. bovis BCG (ATCC 35734); experiment: microbe, parasite or virus in culture; format: cell-based; settings: Mycobacterium tuberculosis variant bovis BCG, 336 h, read-out: MIC M. bovis BCG
[3] = test system: human diploid embryonic lung cell line MRC-5; experiment: XTT cytotoxicity assay on MRC-5 cells; format: cell-based; settings: for Metabolic active MRC-5 cells (%): XTT; for toxicity to MRC-5 cell line (in words): at / up to 100 µM
Method: In order to assess the cytotoxicity of these novel quinolone derivatives, the effect on the viability of a human lung fibroblast cell line MRC-5, was measured using XTT proliferation assay. […] In addition, the position of the triple bond in the side chain seems to have a significant influence on cytotoxcity which is increased in compounds with a triple bond more distant to the quinolone nucleus. This can be concluded by comparing results of 8l, 8n, 8p, and 8r having similar antimycobacterial activity on M. smegmatis but different cytotoxcity depending on triple bond position.
The cytotoxic activity of the synthetic compounds was determined by means of an XTT Cell Proliferation Kit II (Roche Diagnostics, Mannheim, Germany) using the human diploid embryonic lung cell line MRC-5 [11]. The quinolone derivatives were tested at concentrations of 100, 60, 30 and 10 µM in triplicate and the percentage of viable cells at each concentration was determined by comparing with the control.

[4] = test system: M. smegmatis (ATCC 14468); experiment: Microtiter broth dilution MIC against M. smegmatis (ATCC 14468); format: cell-based; settings: Mycolicibacterium smegmatis, ATCC14468, 72 h, 37 °C, MTT
[5] = target: T1, M. tuberculosis MurE ligase; experiment: M. tuberculosis MurE inhibition assay (phosphate colorimetric detection); format: biochemical; settings: tested at 1000, 300, 100 and 30 µM; IC50 from plot of percent inhibition vs. concentration; read-out: IC50 Mtb MurE
EMRSA-15 and -16 = experiment: Broth dilution MIC against epidemic MRSA strains; format: cell-based, S. aureus; settings: Staphylococcus aureus, range over both strains and the compounds named
M. smegmatis mc^2155 = experiment: Broth dilution MIC against M. smegmatis mc^2155; format: cell-based; settings: Mycolicibacterium smegmatis, 72 h

T1 sequence (P9WJL3 whole entry): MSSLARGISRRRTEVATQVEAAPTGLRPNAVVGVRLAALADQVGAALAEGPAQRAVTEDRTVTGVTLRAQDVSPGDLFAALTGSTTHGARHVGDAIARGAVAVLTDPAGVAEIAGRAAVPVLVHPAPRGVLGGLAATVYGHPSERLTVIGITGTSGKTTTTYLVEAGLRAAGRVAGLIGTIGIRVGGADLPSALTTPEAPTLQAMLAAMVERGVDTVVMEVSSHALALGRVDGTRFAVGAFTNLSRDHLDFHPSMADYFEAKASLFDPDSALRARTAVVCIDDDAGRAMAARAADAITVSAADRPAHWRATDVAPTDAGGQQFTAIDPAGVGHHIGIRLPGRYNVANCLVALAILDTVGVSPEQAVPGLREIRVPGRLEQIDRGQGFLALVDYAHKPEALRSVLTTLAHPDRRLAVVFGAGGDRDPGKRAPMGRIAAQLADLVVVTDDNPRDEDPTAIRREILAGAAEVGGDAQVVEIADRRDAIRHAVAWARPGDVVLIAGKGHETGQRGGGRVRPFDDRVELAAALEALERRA

| SMILES | IC50 [1] [µM] | MIC (M. fortuitum (ATCC 6841)) | MIC (S. aureus EMRSA-16) | MIC (M. phlei (ATCC 11758)) | MIC (S. aureus EMRSA-15) | MIC [2] | Metabolic active MRC-5 cells (%) ([3]; 10 µM) | Metabolic active MRC-5 cells (%) ([3]; 30 µM) | Metabolic active MRC-5 cells (%) ([3]; 60 µM) | Metabolic active MRC-5 cells (%) ([3]; 100 µM) | MIC [4] | IC50 [5] [µM] | MIC (EMRSA-15 and -16) | MIC (M. smegmatis mc^2155) | toxicity to MRC-5 cell line (in words) [3] | melting point [°C] |
| --- | --- | --- | --- | --- | --- | --- | --- | --- | --- | --- | --- | --- | --- | --- | --- | --- |
| CCCCCCCC/C=C\CCCCc1cc(=O)c2ccccc2n1C [1-Methyl-2-[(5Z)-tetradecenyl]-4(1H)-quinolone] | 36 | – | – | – | – | – | – | – | – | – | – | – | – | – | – | – |
| CCCCCCCCC#CCCc1cc(=O)c2ccccc2n1CCC [Compound 8l, 1-(n-Propyl)-2-(3'-dodecynyl)-4(1H)-quinolone] | – | 2 µg/mL and 5.7 µM | 8 µg/mL and 22.8 µM | 4 µg/mL and 11.4 µM | 2 µg/mL and 5.7 µM | 25 µg/mL and 71.2 µM | 100 ± 0.31 | 99.1 ± 2.32 | 69.1 ± 8.04 | 9.0 ± 6.85 | 1 µg/mL and 2.8 µM | 263 | 2 µg/mL to 8 µg/mL and 5.5 µM to 22.8 µM | – | – | – |
| CCCCCCCCC#CCCc1cc(=O)c2ccccc2n1CCCC [Compound 8m, 1-(n-Butyl)-2-(3'-dodecynyl)-4(1H)-quinolone] | – | 2 µg/mL and 5.5 µM | 4 µg/mL and 10.9 µM | 4 µg/mL and 10.9 µM | 2 µg/mL and 5.5 µM | 25 µg/mL and 68.5 µM | 94.9 ± 3.18 | 89.7 ± 2.46 | 67.5 ± 3.19 | 0.4 ± 0.02 | 2 µg/mL and 5.5 µM | 235 | 2 µg/mL to 8 µg/mL and 5.5 µM to 22.8 µM | 2 µg/mL and 5.5 µM | – | – |
| CCCCCCCCCCC#Cc1cc(=O)c2ccccc2n1C [Compound 8n, 1-Methyl-2-(1'-dodecynyl)-4(1H)-quinolone] | – | 0.5 µg/mL and 1.5 µM | 4 µg/mL and 12.4 µM | 1 µg/mL and 3.1 µM | 2 µg/mL and 6.2 µM | 25 µg/mL and 77.4 µM | 101 ± 0.85 | 100 ± 0.72 | 100 ± 0.81 | 100 ± 0.82 | 0.5 µg/mL (≈ 1.55 µM) | 251 | 2 µg/mL to 8 µg/mL and 5.5 µM to 22.8 µM | 1 µg/mL and 3.1 µM | devoid of toxicity | – |
| CCCCCCCCCCC#CCCc1cc(=O)c2ccccc2n1C [Compound 8o, 1-Methyl-2-(3'-tetradecynyl)-4(1H)-quinolone] | – | 2 µg/mL and 5.7 µM | 8 µg/mL and 22.8 µM | 2 µg/mL and 5.7 µM | 8 µg/mL and 22.8 µM | 25 µg/mL and 71.2 µM | 100 ± 0.73 | 97.9 ± 0.88 | 95.8 ± 2.54 | 90.7 ± 3.48 | 2 µg/mL and 5.7 µM | 774 | – | 1 µg/mL and 2.8 µM | – | 43 to 45 |
| CCCCCCCCCCC#CCCc1cc(=O)c2ccccc2n1CCC [Compound 8q, 1-(n-Propyl)-2-(3'-tetradecynyl)-4(1H)-quinolone] | – | 2 µg/mL and 5.3 µM | 128 µg/mL and 338 µM | 2 µg/mL and 5.3 µM | 2 µg/mL and 5.3 µM | 25 µg/mL and 66 µM | 92.7 ± 4.62 | 67.9 ± 2.65 | 19.8 ± 9.85 | 0.2 ± 0.09 | 1 µg/mL and 2.6 µM | 200 | – | 1 µg/mL and 2.6 µM | – | – |
| CCCCCCCCCCCCC#Cc1cc(=O)c2ccccc2n1C [Compound 8r, 1-Methyl-2-(1′-tetradecynyl)-4(1H)-quinolone] | – | 0.5 µg/mL and 1.5 µM | 128 µg/mL and 365 µM | 2 µg/mL and 5.7 µM | 16 µg/mL and 45.6 µM | 25 µg/mL and 71.2 µM | 99.7 ± 2.03 | 98.1 ± 1.65 | 97.1 ± 1.69 | 95.7 ± 1.14 | 0.5 µg/mL (≈ 1.42 µM) | 631 | – | 1 µg/mL and 2.8 µM | devoid of toxicity | 41 to 43 |
